Among the data in BindingDB's records for doi:10.1002/cbic.201200571 (Technical University of Dortmund, 2013) are IC50 values, retold here.

Assay [1] concerns the target Acyl-protein thioesterase 2 (Homo sapiens, UniProt O95372). As to the kind of experiment: Enzymatic Protein Activity Assay. As to the method: (§1) The enzyme activities were determined by measuring the release of fluorescent 6,8-difluoro-4-methylumbelliferone (DiFMU) by the APT hydrolysis of DiFMU octanoate (DiFMUO) in a Tecan Infinite M200 microplate reader in a 96-well format.

Assay [2] deals with Acyl-protein thioesterase 1 (Homo sapiens, UniProt O75608). In words: Enzymatic Protein Activity Assay. The method, then: as §1
Chain of Acyl-protein thioesterase 1 (O75608 whole entry): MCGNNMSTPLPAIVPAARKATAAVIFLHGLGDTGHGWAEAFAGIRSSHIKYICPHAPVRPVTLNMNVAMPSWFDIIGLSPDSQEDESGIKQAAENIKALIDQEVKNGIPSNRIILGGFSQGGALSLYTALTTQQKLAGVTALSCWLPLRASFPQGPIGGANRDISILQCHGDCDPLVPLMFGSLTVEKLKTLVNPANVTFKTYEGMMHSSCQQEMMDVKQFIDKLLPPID

Chain of Acyl-protein thioesterase 2 (O95372 whole entry): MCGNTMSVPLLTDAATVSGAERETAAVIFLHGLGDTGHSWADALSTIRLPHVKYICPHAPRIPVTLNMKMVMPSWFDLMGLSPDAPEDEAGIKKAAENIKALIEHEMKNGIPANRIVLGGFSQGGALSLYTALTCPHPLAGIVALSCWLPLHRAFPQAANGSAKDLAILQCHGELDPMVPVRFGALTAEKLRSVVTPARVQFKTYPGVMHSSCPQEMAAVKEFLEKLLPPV

In general, IC50 refers to the midpoint of a concentration-inhibition curve. Low values mean greater potency in that assay, high ones weaker potency in that assay. In the case of `COC(=O)c1cc(B(O)O)cc([N+](=O)[O-])c1` [Phenylboronic acid, 16], the IC50 in assay [1] turned out to be 2.95 µM; in assay [2], 3.7 µM.

`OB(O)c1ccc(-c2ccccc2)cc1` [(4-phenylphenyl)boranediol]: the values for the IC50 in assay [1] and in assay [2] were 3.55 µM and 16.9 µM, respectively.

Consider `OB(O)c1cc2ccccc2s1` [Phenylboronic acid, 11], for which the concentration for half-maximal inhibition (IC50) in assay [1] stood at 0.529 µM; in assay [2] it was 2.3 µM.

`OB(O)c1cc(Oc2ccccc2)ccc1I` [Phenylboronic acid, 15]: the IC50 was 0.238 µM in assay [1] and 3.2 µM in assay [2].

For `OB(c1ccccc1)c1cccc(COCc2cccc(B(O)c3ccccc3)c2)c1` [Phenylboronic acid, 7], the IC50 is 41.5 µM in assay [1] and 33.6 µM in assay [2].

For the compound `CN(C)CCOB(c1ccccc1)c1cccc(COCc2cccc(B(OCCN(C)C)c3ccccc3)c2)c1` [Phenylboronic acid, 14], the IC50 was 1.8 µM in assay [1] and 3.2 µM in assay [2].

As to `Cc1ccc(Br)c(B(O)O)c1` [Phenylboronic acid, 19], the IC50 was found to be 2.16 µM in assay [1] and 6.3 µM in assay [2].

Turning to `OB(O)c1cccc(Cl)c1` [Phenylboronic acid, 10], the figures for the IC50 in assay [1] and in assay [2] were 0.418 µM and 1.4 µM, respectively.

Turning to `NCCOB(c1ccccc1)c1ccc(COCc2ccc(B(OCCN)c3ccccc3)cc2)cc1` [Phenylboronic acid, 13], the figures for the IC50 in assay [1] and in assay [2] were 4.1 µM and 2.7 µM, respectively.

As for `OB(O)c1cc(F)cc(F)c1` [Phenylboronic acid, 8], the IC50 in assay [1] was 1.97 µM; in assay [2], 0.51 µM.

For `OB(O)c1cc2ccccc2o1` [Phenylboronic acid, 21], the IC50 in assay [1] is 11.3 µM; in assay [2], 13.5 µM.

With `OB(O)c1ccccc1-c1ccccc1` [(2-phenylphenyl)boranediol], the IC50 in assay [1] and in assay [2] was greater than 50 µM throughout.

Take `OB(O)c1ccccc1` [Phenylboronic acid, 22]: the figures for the IC50 in assay [1] and in assay [2] were 25.1 µM and 14.7 µM, respectively.

Consider `CC(=O)c1cccc(B(O)O)c1` [Phenylboronic acid, 17], for which the results for the IC50 in assay [1] and in assay [2] were 2.87 µM and 3.9 µM, respectively.

In the case of `OB(O)c1ccc(Cl)c(Cl)c1` [3,4-Dichlorophenyl boronic acid], the IC50 was determined as 0.138 µM in assay [1] and 1.1 µM in assay [2].

On to `OB(O)c1ccc(Cl)cc1` [Phenylboronic acid, 18], for which the IC50 in assay [1] was 4.18 µM; in assay [2] it was 4.6 µM.
